Laboratory results as given in ChEMBL document CHEMBL1150995, “DNA cleavage by photoexcited diazoarenes” (Bioorg Med Chem Lett, 1997).

Legend:
[1] = Inhibitory effect of 2-Propanol (100 uM) on light induced nuclease activity was determined
[2] = Inhibitory effect of D2O on light induced nuclease activity was determined; settings: concentration not given here
[3] = Inhibitory effect of DABCO (0.2 M) on light induced nuclease activity was determined
[4] = Inhibitory effect of DMSO (0.2 M) on light induced nuclease activity was determined
[5] = Inhibitory effect of Mannitol (100 mM) on light induced nuclease activity was determined
[6] = Inhibitory effect of SOD (100 ng) on light induced nuclease activity was determined
[7] = Inhibitory effect of cumene (100 uM) on light induced nuclease activity was determined
[8] = Inhibitory effect of triphenylphosphine (100 uM) on light induced nuclease activity was determined

SMILES | inhibition [1] | inhibition [2] | inhibition [3] | inhibition [4] | inhibition [5] | inhibition [6] | inhibition [7] | inhibition [8]
[N-]=[N+]=C1c2ccccc2C(=O)c2ccccc21 | 25% | 10% | 30% | 12% | 5% | 10% | 39% | 35%
[N-]=[N+]=c1c2ccccc2oc2ccccc12 | 30% | 8% | 38% | 5% | 3% | 8% | 58% | 35%
